# Test results reported in patent US20220226338A1, “Methods of Treating Cancer Using CHK1 Inhibitors” (Sierra Oncology, Inc., priority 2019, published 2022).
# Read-outs that look alike come from different tables or passages of the source.
# What was measured:
# [1] = system: cryopreserved hepatocytes; assay: Stability in cryopreserved rat hepatocytes; format: in vitro ADME; conditions: 10 μM, after 4 hours of incubation
# Protocol: The formation of SRA737-related metabolites was determined in cryopreserved hepatocytes from human, mouse, rat, dog, minipig and monkey samples after incubation with SRA737 at a nominal concentration of 10 μM for up to 4 hours. […] In the human hepatocyte preparation, approximately 67% of the parent remained after 4 hours of incubation compared to 75% and 7% in the rat and minipig preparations, respectively. Eight human SRA737 metabolites were observed. All SRA737 metabolites formed by human hepatocytes were also formed by monkey hepatocytes. Six metabolites were present at equal or greater abundance in the monkey.
# plasma protein = assay: Plasma protein binding, ultracentrifugation, monkey plasma; format: in vitro ADME
# Protocol: (§1) The PK of SRA737 have been determined in the mouse, rat, dog and monkey following oral and IV administration (Table 3). […] An acceptable terminal elimination t1/2 was also observed in each species. […] The plasma protein binding of SRA737 at 1 and 10 μM was examined in mouse, minipig, monkey and human plasma using ultracentrifugation and in dog plasma (10 μM) using rapid equilibrium dialysis.
# [2] = Excretion in urine and feces, rats; format: in vivo; conditions: rat, over 24 hours
# Protocol: The excretion of SRA737 has been studied in mice and rats administered SRA737 at either 5 mg/kg IV or 10 mg/kg orally. Urine and feces were collected for a 24-hour period after dosing. In mice, renal excretion of intact SRA737 was consistently low (less than 10% of dose) after both oral and IV administration. Following IV administration of SRA737, less than 8% of the dose was recovered as intact drug in the feces while after oral administration this figure was less than 3%. Excretion of intact SRA737 was lower in the rat than in the mouse with <1% of dose excreted renally over 24 hours and less than 1.5% of dose excreted into the feces over 24 hours.
# [3] = SRA737 monotherapy clinical study (SRA737-01), pharmacokinetics; format: in vivo, human
# Protocol: A Phase 1 clinical trial was conducted in ‘all comers,’ i.e. no genetic selection was performed, to establish safety, tolerability and pharmacokinetics (“Dose Escalation Phase”). Cohorts consisting initially of a single subject received escalating doses of SRA737, starting in Cohort 1 with 20 mg/day administered orally on a continuous daily dosing schedule in 28 day cycles. the dose was escalated until the maximum tolerated dose (MTD) was identified.
# Cmin was calculated at 1000 mg QD (411 ng/mL) and exceeded that determined in preclinical models to be effective. Doses ≥300 mg QD also exceeded the preclinical models to be effective.
# A Dose Escalation phase employed an accelerated titration design starting at 20 mg SRA737, administered QD orally in 28-day cycles. Incremental dose escalations in single-subject cohorts were followed by a rolling-6 design once SRA737-related ≥Grade 2 toxicity was observed during Cycle 1.
# The plasma pharmacokinetics of SRA737 were reproducible and generally dose concordant. […] All doses ≥300 mg QD also exceeded this threshold level.
# Single dose PK, mouse = format: in vivo; conditions: Mouse oral 10 mg/kg single dose
# Text: Several studies have been conducted to evaluate the PK properties of SRA737, such as the absorption (in vitro permeability assays and in vivo PK following IV and oral administration), distribution (in vivo tissue distribution and in vitro plasma protein binding) and metabolism (in vitro hepatocyte and CYP inhibition and induction studies) of SRA737.
# as §1
# [4] = SRA737 plasma and tumor concentrations in HT29 xenograft model; format: in vivo, mice; conditions: mouse, plasma, oral, read-out: plasma concentration with anti-tumor activity in preclinical efficacy models
# Protocol: The effect of SRA737 on Gemcitabine induced CHK1 S296 autophosphorylation was assessed as described in Walton et al. (Oncotarget. 2016 January 19; 7(3): 2329-2342), herein incorporated by reference for all it teaches. Briefly, mice bearing HT29 tumor xenografts were administered (i) vehicle control or (ii) gemcitabine (100 mg/kg in saline, IV) or (iii) a combination of SRA737 (12.5, 25, 50 or 100 mg/kg in DTPW, oral) and gemcitabine (100 mg/kg) with SRA737 administered 24 hours following gemcitabine administration (n=3 per time point per treatment). […] Exposure in the tumor was greater than 10-fold higher than in plasma. The circulating plasma concentration at this 24-hour timepoint corresponded to a free drug concentration of approximately 6 nM (2 ng/mL) based on plasma protein binding in mice of 94%.
# Chk1 autophosphorylation = assay: In vitro Chk1 inhibition after genotoxic chemotherapy (autophosphorylation, checkpoint arrest, cytotoxicity potentiation); format: cell-based
# CYP1A2 = assay: CYP induction in vitro; format: in vitro ADME; conditions: positive control omeprazole, minimal, concentration dependent
structure (smiles),measurement,setting,value
"N#Cc1cnc(Nc2cc(NCC3CNCCO3)c(C(F)(F)F)cn2)cn1 (stereo not drawn) [SRA737, 5-[[4-[[morpholin-2-yl]methylamino]-5-(trifluoromethyl)-2-pyridyl]amino]pyrazine-2-carbonitrile]",parent remaining,[1],75%
same,Percentage Bound,plasma protein; 1 μM,88.8%
same,Percentage Free,plasma protein; 1 μM,11.2%
same,Percentage Bound,plasma protein; 10 μM,85.8%
same,Percentage Free,plasma protein; 10 μM,14.2%
same,intact SRA737 excreted into the feces,[2],less than 1.5 % of dose
same,intact SRA737 excreted renally,[2],< 1 % of dose
same,CL/F,"[3]; human, in vivo, 160 mg",70.0 L/h
same,Vd/F,"[3]; human, in vivo, 160 mg",1390 L
same,CL/F,"[3]; human, in vivo, 300 mg",81.9 L/h
same,Vd/F,"[3]; human, in vivo, 300 mg",1020 L
same,t1/2,"[3]; human, in vivo, 300 mg",8.6 h
same,CL/F,"[3]; human, in vivo, 600 mg",56.9 L/h
same,Vd/F,"[3]; human, in vivo, 600 mg",1090 L
same,AUC(0-t),"[3]; human, in vivo, 800 mg",18500 ng·h/mL
same,CL/F,"[3]; human, in vivo, 800 mg",39.1 L/h
same,Cmax,"[3]; human, in vivo, 800 mg",1880 ng/mL
same,Vd/F,"[3]; human, in vivo, 800 mg",596 L
same,t1/2,"[3]; human, in vivo, 800 mg",10.5 h
same,AUC0-24 h,"[3]; human, in vivo, 1000 mg",20270 ng·h/mL
same,CL/F,"[3]; human, in vivo, 1000 mg",44.9 L/h
same,Cmax,"[3]; human, in vivo, 1000 mg",2098 ng/mL
same,Vd/F,"[3]; human, in vivo, 1000 mg",704 L
same,CL/F,"[3]; human, in vivo, 1300 mg",38.6 L/h
same,Vd/F,"[3]; human, in vivo, 1300 mg",625 L
same,doses at which Cmin exceeded that effective in preclinical models,[3]; monotherapy,≥ 300 mg QD
same,Cmin,[3]; monotherapy PK dose 160 mg (n = 1),31.7 ng/mL
same,Cmin,[3]; monotherapy PK dose 300 mg (n = 1),41.2 ng/mL
same,Cmin,[3]; monotherapy PK dose 600 mg (n = 4),129 ng/mL
same,Cmin,[3]; monotherapy PK dose 800 mg (n = 38),234 ng/mL
same,Cmin,[3]; monotherapy PK dose 1000 mg (n = 44-45),289 ng/mL
same,Cmin,[3]; monotherapy PK dose 1300 mg (n = 3),466 ng/mL
same,Foral,"Single dose PK, mouse",105%
same,concentration at 24 h,[4]; equivalent of 100 nM,~37.9 ng/mL
same,concentration at 24 h,"[4]; mice, sustained for 24 hours, PK/PD benchmark",100 nM
same,inhibition of genotoxicity-induced checkpoint arrest,Chk1 autophosphorylation,dose-dependent inhibition
same,potentiation of the cytotoxicity of genotoxic chemotherapeutic agents and targeted agents,Chk1 autophosphorylation,dose-dependent potentiation
same,inhibition of genotoxic chemotherapy-induced Chk1 autophosphorylation,Chk1 autophosphorylation; data not shown,potently inhibited
same,induction of CYP1A2,CYP1A2,< 10 % positive control
